In patent US20210205236A1, “THERAPEUTIC COMBINATIONS OF BOSWELLIA EXTRACT AND CANNABINOIDS” (priority 2018, published 2021):
Where two headings read alike, the source gives them in different places.

How the values were obtained:
CB1 receptor [1] = molecular target: T1, CB1 receptor (Homo sapiens, UniProt P21554); assay type: cell-based; conditions: for Conclusions: Is CB1R agonist effect observed? / Experiment 1 Fold change / Experiment 2 Fold change / Experiment 3 Fold change: alone or + THCA 10 μM or + THC 10 μM
T1 construct: expressed in transfected cells
T1 sequence (P21554 whole entry): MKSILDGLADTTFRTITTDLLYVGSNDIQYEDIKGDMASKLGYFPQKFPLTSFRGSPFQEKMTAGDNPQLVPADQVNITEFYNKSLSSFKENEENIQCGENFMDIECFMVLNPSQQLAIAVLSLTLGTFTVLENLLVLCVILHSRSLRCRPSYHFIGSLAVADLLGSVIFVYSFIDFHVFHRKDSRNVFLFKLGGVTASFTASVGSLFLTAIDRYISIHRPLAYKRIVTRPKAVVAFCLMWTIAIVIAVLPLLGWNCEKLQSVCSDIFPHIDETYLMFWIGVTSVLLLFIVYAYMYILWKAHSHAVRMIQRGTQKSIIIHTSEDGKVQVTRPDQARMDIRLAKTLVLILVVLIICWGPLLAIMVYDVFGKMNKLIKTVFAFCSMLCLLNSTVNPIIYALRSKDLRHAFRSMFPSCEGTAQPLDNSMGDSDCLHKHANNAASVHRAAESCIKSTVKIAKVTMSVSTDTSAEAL

CB1 receptor [2] = molecular target: T1, CB1 receptor; assay: cell-based; assay type: cell-based; conditions: for Conclusions: Is CB1R antagonist effect observed? / activity at 5 µM / Experiment 1 Fold change / Experiment 2 Fold change / Experiment 3 Fold change / activity at 10 µM / activity at 25 µM / activity at 50 µM / activity at 100 µM: alone or + THCA 10 μM, CBD 1 μM or THC 10 μM; for activity at 5 µM / activity at 10 µM / activity at 25 µM / activity at 50 µM / activity at 100 µM: CP55940-induced activity = 100%; for Experiment 1 Fold change / Experiment 2 Fold change / Experiment 3 Fold change: Table 3 data re-expressed as fold change

`CC(=O)O[C@@H]1CC[C@@]2(C)[C@@H](CC[C@]3(C)[C@@H]2C(=O)C=C2[C@@H]4[C@@H](C)[C@H](C)CC[C@]4(C)CC[C@]23C)[C@@]1(C)C(=O)O` [AKBA, 3-O-acetyl-11-ketobeta-boswellic acid] was tested, and the “Conclusions: Is CB1R agonist effect observed?” value (CB1 receptor [1]; AKBA 5 μM) was “Negative (Only treatments that the mean of three consecutive independent experiments shows a positive result: CB1R activity ≥ 2.5-fold increase or ≥ 4-fold increase are considered CB1R agonists or CB1R positive allosteric modulators)”, the “Experiment 1 Fold change” value (CB1 receptor [1]; AKBA 5 μM) was 0.8 Fold change and the “Experiment 2 Fold change” value (CB1 receptor [1]; AKBA 5 μM) was 0.8 Fold change. For the same compound, the “Experiment 3 Fold change” value (CB1 receptor [1]; AKBA 5 μM) was 1.1 Fold change, the “Conclusions: Is CB1R agonist effect observed?” value (CB1 receptor [1]; AKBA 10 μM) was “Negative (Only treatments that the mean of three consecutive independent experiments shows a positive result: CB1R activity ≥ 2.5-fold increase or ≥ 4-fold increase are considered CB1R agonists or CB1R positive allosteric modulators)” and the “Experiment 1 Fold change” value (CB1 receptor [1]; AKBA 10 μM) was 1.0 Fold change. The “Experiment 2 Fold change” value (CB1 receptor [1]; AKBA 10 μM) was 1.3 Fold change, the “Experiment 3 Fold change” value (CB1 receptor [1]; AKBA 10 μM) was 0.9 Fold change and the “Experiment 1 Fold change” value (CB1 receptor [1]; AKBA 25 μM) was 1.0 Fold change. For the same compound, the “Experiment 2 Fold change” value (CB1 receptor [1]; AKBA 25 μM) was 1.1 Fold change, the “Experiment 3 Fold change” value (CB1 receptor [1]; AKBA 25 μM) was 0.8 Fold change and the “Conclusions: Is CB1R agonist effect observed?” value (CB1 receptor [1]; AKBA 25 μM, cell 'Positive' wraps to 'Positive synergy') was “Negative (Only treatments that the mean of three consecutive independent experiments shows a positive result: CB1R activity ≥ 2.5-fold increase or ≥ 4-fold increase are considered CB1R agonists or CB1R positive allosteric modulators)”. For the same compound, the “Experiment 1 Fold change” value (CB1 receptor [1]; AKBA 50 μM) was 1.3 Fold change, the “Experiment 2 Fold change” value (CB1 receptor [1]; AKBA 50 μM) was 1.3 Fold change and the “Experiment 3 Fold change” value (CB1 receptor [1]; AKBA 50 μM) was 0.7 Fold change. The “Conclusions: Is CB1R agonist effect observed?” value (CB1 receptor [1]; AKBA 50 μM, cell 'Positive' wraps to 'Positive synergy') was “Negative (Only treatments that the mean of three consecutive independent experiments shows a positive result: CB1R activity ≥ 2.5-fold increase or ≥ 4-fold increase are considered CB1R agonists or CB1R positive allosteric modulators)”, the “Experiment 1 Fold change” value (CB1 receptor [1]; AKBA 100 μM) was 2.5 Fold change and the “Experiment 2 Fold change” value (CB1 receptor [1]; AKBA 100 μM) was 1.1 Fold change. The “Experiment 3 Fold change” value (CB1 receptor [1]; AKBA 100 μM) was 0.7 Fold change, the “Conclusions: Is CB1R agonist effect observed?” value (CB1 receptor [1]; AKBA 100 μM, cell 'Positive' wraps to 'Positive synergy') was “Negative (Only treatments that the mean of three consecutive independent experiments shows a positive result: CB1R activity ≥ 2.5-fold increase or ≥ 4-fold increase are considered CB1R agonists or CB1R positive allosteric modulators)” and the “CB1R agonistic activity” value (CB1 receptor [1]; AKBA 5-100 μM alone or + 10 μM THCA, any tested concentration, THC alone) was “did not show CB1R agonistic activity”. For the same compound, the EC50 (CB1 receptor [2]) was 51.7 ± 13.6 µM, the “Positive allosteric CB1R effect on CP-55940 activity” value (CB1 receptor [2]) was “strong positive allosteric CB1R effect” and the “Conclusions: Is CB1R antagonist effect observed?” value (CB1 receptor [2]; AKBA 5 μM, % of activity data) was “Negative (Only treatments that the mean of three consecutive independent experiments show a positive result (CB1R activity ≤ 50%) are considered antagonists of CB1R activity)”. The activity at 5 µM (CB1 receptor [2]; AKBA 5 μM, read-out: Experiment 1 % of activity) was 130%, the activity at 5 µM (CB1 receptor [2]; AKBA 5 μM, read-out: Experiment 2 % of activity) was 123% and the activity at 5 µM (CB1 receptor [2]; AKBA 5 μM, read-out: Experiment 3 % of activity) was 103%. For the same compound, the “Experiment 1 Fold change” value (CB1 receptor [2]; AKBA 5 μM) was 3.2 Fold change, the “Experiment 2 Fold change” value (CB1 receptor [2]; AKBA 5 μM) was 3.1 Fold change and the “Experiment 3 Fold change” value (CB1 receptor [2]; AKBA 5 μM) was 2.6 Fold change. The “Conclusions: Is CB1R antagonist effect observed?” value (CB1 receptor [2]; AKBA 5 μM, positive allosteric activity, fold change data) was “Negative (Only treatments that the mean of three consecutive independent experiments show a positive result (CB1R activity ≥ 4-fold change) are considered positive CB1R allosteric agonists)”, the “Conclusions: Is CB1R antagonist effect observed?” value (CB1 receptor [2]; AKBA 10 μM, % of activity data) was “Negative (Only treatments that the mean of three consecutive independent experiments show a positive result (CB1R activity ≤ 50%) are considered antagonists of CB1R activity)” and the activity at 10 µM (CB1 receptor [2]; AKBA 10 μM, read-out: Experiment 1 % of activity) was 136%. For the same compound, the activity at 10 µM (CB1 receptor [2]; AKBA 10 μM, read-out: Experiment 2 % of activity) was 114%, the activity at 10 µM (CB1 receptor [2]; AKBA 10 μM, read-out: Experiment 3 % of activity) was 96.4% and the “Experiment 1 Fold change” value (CB1 receptor [2]; AKBA 10 μM) was 3.4 Fold change. For the same compound, the “Experiment 2 Fold change” value (CB1 receptor [2]; AKBA 10 μM) was 2.8 Fold change, the “Experiment 3 Fold change” value (CB1 receptor [2]; AKBA 10 μM) was 2.4 Fold change and the “Conclusions: Is CB1R antagonist effect observed?” value (CB1 receptor [2]; AKBA 10 μM, positive allosteric activity, fold change data) was “Negative (Only treatments that the mean of three consecutive independent experiments show a positive result (CB1R activity ≥ 4-fold change) are considered positive CB1R allosteric agonists)”. The “Conclusions: Is CB1R antagonist effect observed?” value (CB1 receptor [2]; AKBA 25 μM, % of activity data) was “Allosterism (increase of the CB1R activity percentage (>150%) induced by CP55940)”, the activity at 25 µM (CB1 receptor [2]; AKBA 25 μM, read-out: Experiment 1 % of activity) was 203% and the activity at 25 µM (CB1 receptor [2]; AKBA 25 μM, read-out: Experiment 2 % of activity) was 158%. For the same compound, the activity at 25 µM (CB1 receptor [2]; AKBA 25 μM, read-out: Experiment 3 % of activity) was 128%, the “Experiment 1 Fold change” value (CB1 receptor [2]; AKBA 25 μM) was 5.1 Fold change and the “Experiment 2 Fold change” value (CB1 receptor [2]; AKBA 25 μM) was 3.9 Fold change. The “Experiment 3 Fold change” value (CB1 receptor [2]; AKBA 25 μM) was 3.2 Fold change, the “Conclusions: Is CB1R antagonist effect observed?” value (CB1 receptor [2]; AKBA 25 μM, positive allosteric activity, fold change data) was “Allosterism (An increase of the fold change ≥ 4-fold indicates CB1R positive allosteric agonistic activity)” and the “Conclusions: Is CB1R antagonist effect observed?” value (CB1 receptor [2]; AKBA 50 μM, % of activity data) was “Allosterism (increase of the CB1R activity percentage (>150%) induced by CP55940)”. For the same compound, the activity at 50 µM (CB1 receptor [2]; AKBA 50 μM, read-out: Experiment 1 % of activity) was 500%, the activity at 50 µM (CB1 receptor [2]; AKBA 50 μM, read-out: Experiment 2 % of activity) was 537% and the activity at 50 µM (CB1 receptor [2]; AKBA 50 μM, read-out: Experiment 3 % of activity) was 474%. The “Experiment 1 Fold change” value (CB1 receptor [2]; AKBA 50 μM) was 12.5 Fold change, the “Experiment 2 Fold change” value (CB1 receptor [2]; AKBA 50 μM) was 13.4 Fold change and the “Experiment 3 Fold change” value (CB1 receptor [2]; AKBA 50 μM) was 11.9 Fold change. The “Conclusions: Is CB1R antagonist effect observed?” value (CB1 receptor [2]; AKBA 50 μM, positive allosteric activity, fold change data) was “Allosterism (An increase of the fold change ≥ 4-fold indicates CB1R positive allosteric agonistic activity)”, the “Conclusions: Is CB1R antagonist effect observed?” value (CB1 receptor [2]; AKBA 100 μM, % of activity data) was “Allosterism (increase of the CB1R activity percentage (>150%) induced by CP55940)” and the activity at 100 µM (CB1 receptor [2]; AKBA 100 μM, read-out: Experiment 2 % of activity) was 674%. The activity at 100 µM (CB1 receptor [2]; AKBA 100 μM, read-out: Experiment 3 % of activity) was 485%, the “Experiment 1 Fold change” value (CB1 receptor [2]; AKBA 100 μM) was 25.6 Fold change and the “Experiment 2 Fold change” value (CB1 receptor [2]; AKBA 100 μM) was 16.8 Fold change. The “Experiment 3 Fold change” value (CB1 receptor [2]; AKBA 100 μM) was 12.1 Fold change, the “Conclusions: Is CB1R antagonist effect observed?” value (CB1 receptor [2]; AKBA 100 μM, positive allosteric activity, fold change data) was “Allosterism (An increase of the fold change ≥ 4-fold indicates CB1R positive allosteric agonistic activity)” and the “CB1R antagonistic effect” value (CB1 receptor [2]; AKBA 5-100 μM, CP55940-stimulated cells) was “did not show an antagonistic effect”.
